# Experimental data published in patent publication US5441985A, “Treatment of lower urinary tract disorders with selective norepinephrine uptake inhibitors” (priority 1993, dated 1995).
# Read-outs that look alike come from different tables or passages of the source.
# How the values were obtained:
# nocturnal enuresis = conditions: cited from earlier work; for effectiveness in treating nocturnal enuresis: human, in vivo
# [1] = system: rat urinary bladder strips; conditions: cited from earlier work
# cholinergic receptors [2] = conditions: read-out: IC50 for displacement of tritiated-quinuclidinol benzoate (QNB) binding, cited from earlier work
# rabbit bladder = conditions: cited from earlier work
# [3] = system: guinea pig bladder muscle strips; conditions: guinea pig bladder muscle strips in vitro; cited from earlier work
# [4] = system: dog urethra and bladder fragments; assay: NE release in dog urethra and bladder fragments in vitro
# [5] = system: rabbit urethra and bladder fragments; assay: NE release in rabbit urethra and bladder fragments in vitro
# stress incontinence = conditions: women with stress incontinence; cited from earlier work
# guinea pig bladder = conditions: guinea pig strips in vitro and cystometrogram in vivo; cited from earlier work
# rabbit bladder strips [6] = conditions: cited from earlier work
# dog bladder strips [7] = conditions: cited from earlier work
# human bladder strips = conditions: cited from earlier work
# dog bladder strips [8] = conditions: cited from earlier work; remark: listed apart in the source
# bladder [9] = conditions: female dogs; cited from earlier work
# [10] = system: muscarinic presynaptic receptors; conditions: rat bladder tissue in vitro; cited from earlier work
# rabbit bladder strips [11] = conditions: in the presence of imipramine; cited from earlier work
# rabbit detrusor strips = rabbit detrusor strips in vitro; cited from earlier work
# frog sciatic nerves = frog sciatic nerves in vitro; cited from earlier work
# dog bladder and urethra = conditions: cited from earlier work
# cat bladder = conditions: in vivo; cited from earlier work
# [12] = system: dog bladder muscle strips; conditions: cited from earlier work
# urethra = conditions: female dogs; cited from earlier work
# micturition reflex = conditions: cited from earlier work
# [13] = children under 5 years of age; cited from earlier work
# [14] = clinical evaluation as potential treatments for depression, side effects
# cholinergic receptors [15] = assay: 3H-QNB ligand displacement assay (in vitro anti-cholinergic assay); type: binding; conditions: 3H-QNB displacement; read-out: anticholinergic IC50
# bladder [16] = assay: bladder function in the cat; type: in vivo
# rat urethral tissue = assay: contractile response of rat urethral tissue to NE
# rat bladder tissue = assay: relaxation of rat bladder tissue to NE
# [17] = human, in vivo
structure (smiles),measurement,setting,value
CN(C)CCC=C1c2ccccc2CCc2ccccc21 [amitriptyline],effectiveness in treating nocturnal enuresis,nocturnal enuresis,effective
same,contractile response to electrical stimulation,[1],suppressed the contractile response
CN1[C@@H]2CC[C@H]1C[C@@H](OC(=O)C(CO)c1ccccc1)C2 (some centres unmarked) [atropine],IC50,cholinergic receptors [2],52 µM
same,suppression/inhibition of field stimulated contraction,rabbit bladder; rabbit bladder organ bath,30%
same,suppression/relaxation of bethanechol-induced contraction,rabbit bladder; rabbit bladder organ bath,70%
same,potassium-induced contraction,[3],not effect at high concentration
CNCCCN1c2ccccc2CCc2ccccc21 [desipramine],effectiveness in treating nocturnal enuresis,nocturnal enuresis,effective
same,contractile response to electrical stimulation,[1],suppressed the contractile response
CN(C)CCCN1c2ccccc2CCc2ccccc21 [imipramine],NE release,[4],increase NE release
same,NE release,[5],increase NE release
same,IC50,cholinergic receptors [2]; bladder homogenates,13 µM
same,suppression/inhibition of field stimulated contraction,rabbit bladder; rabbit bladder organ bath,50%
same,suppression/relaxation of bethanechol-induced contraction,rabbit bladder; rabbit bladder organ bath,50%
same,further patients with improvements,nocturnal enuresis; following treatment,15-20%
same,patients with enuresis cured,nocturnal enuresis; following treatment,over 50%
same,restoring continence,stress incontinence,effective as a single therapy
same,activity on bladder,guinea pig bladder,"anticholinergic, antispasmodic, and local anesthetic activity"
same,contractile responses to acetylcholine (ACH),rabbit bladder strips [6],block in vitro contractile responses
same,contractile responses to acetylcholine (ACH),dog bladder strips [7],block in vitro contractile responses
same,contractile responses to acetylcholine (ACH),human bladder strips,block in vitro contractile responses
same,contractile responses to barium chloride,dog bladder strips [8],suppressed contractile responses to barium chloride
same,musculotropic relaxant effect,dog bladder strips [8]; compared with flavoxate,more potent than that of flavoxate
same,cholinergic contractile responses induced by bethanechol,dog bladder strips [8]; dog bladder strips,suppressed cholinergic contractile responses
same,bladder pressure responses to pelvic nerve stimulation,bladder [9],reduced bladder pressure responses
same,effect on muscarinic presynaptic receptors,[10],strong antagonistic effect on muscarinic presynaptic receptors
same,effectiveness of calcium to augment bethanechol-induced contraction,rabbit bladder strips [11],decreased effectiveness of calcium
same,carbamylcholine and barium chloride-induced contractions,rabbit detrusor strips,antagonize
same,impulse conduction,frog sciatic nerves,block the impulse conduction
same,bladder and urethral pressure responses to pelvic nerve stimulation and other stimuli,dog bladder and urethra,reduce dog bladder and urethral pressure responses
same,effects of hypogastric nerve stimulation on bladder relaxation,cat bladder,potentiated the effects of hypogastric nerve stimulation
same,relaxation effects of norepinephrine,[12]; with norepinephrine,enhanced the in vitro relaxation effects of norepinephrine
same,effect on bladder muscle strips alone,[12]; without norepinephrine,no effects alone
same,urethral pressure,urethra,increase urethral pressure
same,supraspinal reflex or myogenic activity of bladder,micturition reflex; acute administration,no effect
same,threshold for activating the bladder-spinal-bladder (vesicovesical) micturition reflex,micturition reflex; acute administration,increased the threshold
same,threshold for supraspinal reflex,micturition reflex; repeated administration,increased threshold for supraspinal reflex
same,potassium-induced contraction,[3],suppression of potassium-induced contraction
same,toxicity in children,[13],particularly toxic and potentially lethal in low dosage
same,noted side effect,[14],urine retention
CCN(CC)CC(=O)Nc1c(C)cccc1C [lidocaine],potassium-induced contraction,[3],not effect at high concentration
CNCCC=C1c2ccccc2CCc2ccccc21 [nortriptyline],effectiveness in treating nocturnal enuresis,nocturnal enuresis,effective
CC(C)[N+](C)(CCOC(=O)C1c2ccccc2Oc2ccccc21)C(C)C [propantheline],IC50,cholinergic receptors [2]; bladder homogenates,29.5 µM
"CNCC[C@@H](Oc1ccccc1C)c1ccccc1 [tomoxetine, (-)-N-methyl-3-(2-methylphenoxy)-3-phenylpropylamine]",IC50,cholinergic receptors [15],21 µM
same,amplitude and frequency of contractions,bladder [16],decreasing the amplitude and frequency of contractions
same,bladder capacity,bladder [16],increasing bladder capacity
same,NE release,[4],increase NE release
same,NE release,[5],increase NE release
same,contractile response of urethral tissue to NE,rat urethral tissue,significantly increase the contractile response
same,relaxation of bladder tissue to NE,rat bladder tissue,augment the relaxation
same,noted side effect,[17],urine retention
same,"side effects such as dry mouth, drowsiness, and dizziness",[17],considerably fewer side effects
COc1ccc(CCN(C)CCCC(C#N)(c2ccc(OC)c(OC)c2)C(C)C)cc1OC (centres unmarked) [verapamil],suppression/inhibition of field stimulated contraction,rabbit bladder,81%
same,suppression/relaxation of bethanechol-induced contraction,"rabbit bladder; rabbit, bladder",85%
